Assay results from US20240391885A1, “FORMS OF LINERIXIBAT” (GLAXOSMITHKLINE INTELLECTUAL PROPERTY (NO. 2) LIMITED, priority 2020, published 2024).
Converted amounts (≈) assume the structure as drawn.

Key:
[1] = Systemic absorption of linerixibat; conditions: in vivo
[2] = Solubility of linerixibat drug substance over pH 1.2-6.8 at 37±1° C. (Experiment 8a); format: physicochemical
Protocol: The solubility of linerixibat drug substance, in respect of Form I and Form III, was determined over the pH range of 1.2-6.8 at 37±1° C. Eight pH values within this range, including buffers at pH 1.2, 4.5 and 6.8 were evaluated. The therapeutic dose for linerixibat is 40 mg.
• SGF=simulated gastric fluid • BR=Britton Robinson

[3] = Dissolution of linerixibat tablets (USP <711> Apparatus II); format: physicochemical; conditions: at both gastric and intestinal pH (pH 1.2 and pH 6.8)
Protocol: The dissolution procedure developed for Linerixibat Tablets, 40 mg, is determined as directed in USP<711> and the method parameters are presented in Table G. The percentage of dissolved drug is currently determined by gradient reversed-phase HPLC.
The above dissolution method at pH 6.8 was applied to two batches of Linerixibat Tablets, 40 mg and the profiles obtained are shown in FIG. 24.

[4] = Storage stability of drug substance by HPLC, XRPD and SSNMR; format: physicochemical; conditions: 1 month of storage at 50° C./ambient RH
[5] = Miniaturised shake flask solubility in Britton-Robinson buffers and biorelevant media (Experiment 8c); format: physicochemical; conditions: 37° C., 1, 4 and 24 hours; FIG. 25
Protocol: Solubility of Form I and Form III was also measured in Britton-Robinson buffers (pH 2-8), determined and compared using a standardised miniaturised shake flask method via an automated platform using a development HPLC method for quantification post centrifugation and filtration. Samples were run at 37° C. and performed as 2 replicate preparations for each pH condition and 4 replicate preparations for each biorelevant media condition at 1, 4 and 24 hours.

[6] = Solubility of drug substance samples in biorelevant media and sodium acetate buffer (Experiment 8b); format: physicochemical
Text: Solubility data was obtained for drug substance samples of linerixibat Form I, linerixibat Form III, and additionally for a sample of Form I compressed to 100 MPa which therefore contained an amount of Form III, in order to replicate typical forces encountered during tablet manufacture.
The media used for the drug substance samples were biorelevant media likely to be experienced in the stomach and the intestine, namely Simulated Gastric Fluid (SGF) over an increasing pH range (1.6, 2.0 and 4.0) and Fasted State Simulated Intestinal Fluid (FaSSIF) at a pH of 6.5. Solubility data was also obtained in 50 mM sodium acetate buffer pH 4.5.

## CCCC[C@]1(CC)CS(=O)(=O)c2cc(CNC(CC(=O)O)CC(=O)O)c(OC)cc2[C@@H](c2ccccc2)N1 [linerixibat, 3-({[(3R,5R)-3-butyl-3-ethyl-7-(methyloxy)-1,1-dioxido-5-phenyl-2,3,4,5-tetrahydro-1,4-benzothiazepin-8-yl]methyl}amino)pentanedioic acid]
[1]
  systemic absorption: minimal systemic absorption
[2]; buffer, 37 °C, pH 1.2, simulated gastric fluid, thermodynamic from solid, pH 1.2 (gastric pH), read-out: solubility
  Solubility: > 1000 µg/mL
[2]; buffer, 37 °C, pH 6.8, aqueous buffer, thermodynamic from solid, pH 6.8 (intestinal pH), read-out: solubility
  Solubility: > 1000 µg/mL
[3]
  time to full release: 5 min

## CCCC[C@]1(CC)CS(=O)(=O)c2cc(CNC(CC(=O)O)CC(=O)O)c(OC)cc2[C@@H](c2ccccc2)N1 [Form III]
[4]
  change of form or drug-related impurity content: Laboratory isolated Form III drug substance demonstrated no change in form
[2]; Britton Robinson buffer, 37 °C, pH 3.7, aqueous buffer, thermodynamic from solid, nominal pH 3.7, BR buffer, 1-hr timepoint
  solubility at 1 h: 104 µg/mL (≈ 190 µM)
[2]; Britton Robinson buffer, 37 °C, pH 3.7, aqueous buffer, thermodynamic from solid, nominal pH 3.7, BR buffer, 4-hr timepoint
  solubility at 4 h: 121 µg/mL (≈ 221 µM)
[2]; Britton Robinson buffer, 37 °C, pH 3.7, aqueous buffer, thermodynamic from solid, nominal pH 3.7, BR buffer, 24-hr timepoint
  solubility at 24 h: 129 µg/mL (≈ 236 µM)
[2]; all pHs in the physiological range except close to the solubility minimum (between pH 3.2 and pH 4.2), high solubility = above 0.16 mg/mL (40 mg in 250 mL)
  solubility classification: highly soluble
[2]; nominal pH 1.2, SGF, 37° C., 1-hr timepoint
  Solubility: >1000 µg/mL
[2]; nominal pH 1.2, SGF, 37° C., 4-hr timepoint
  Solubility: >1000 µg/mL
[2]; nominal pH 1.2, SGF, 37° C., 24-hr timepoint
  Solubility: >1000 µg/mL
[2]; nominal pH 3.0, BR buffer, 37° C., 1-hr timepoint
  Solubility: 166 µg/mL (≈ 304 µM)
[2]; nominal pH 3.0, BR buffer, 37° C., 4-hr timepoint
  Solubility: 205 µg/mL (≈ 375 µM)
[2]; nominal pH 3.0, BR buffer, 37° C., 24-hr timepoint
  Solubility: 238 µg/mL (≈ 435 µM)
[2]; nominal pH 3.5, BR buffer, 37° C., 1-hr timepoint
  Solubility: 103 µg/mL (≈ 188 µM)
[2]; nominal pH 3.5, BR buffer, 37° C., 4-hr timepoint
  Solubility: 122 µg/mL (≈ 223 µM)
[2]; nominal pH 3.5, BR buffer, 37° C., 24-hr timepoint
  Solubility: 130 µg/mL (≈ 238 µM)
[2]; nominal pH 4.0, BR buffer, 37° C., 1-hr timepoint
  Solubility: 119 µg/mL (≈ 218 µM)
[2]; nominal pH 4.0, BR buffer, 37° C., 4-hr timepoint
  Solubility: 137 µg/mL (≈ 251 µM)
[2]; nominal pH 4.0, BR buffer, 37° C., 24-hr timepoint
  Solubility: 147 µg/mL (≈ 269 µM)
[2]; nominal pH 4.5, Acetate buffer, 37° C., 1-hr timepoint
  Solubility: 199 µg/mL (≈ 364 µM)
[2]; nominal pH 4.5, Acetate buffer, 37° C., 4-hr timepoint
  Solubility: 252 µg/mL (≈ 461 µM)
[2]; nominal pH 4.5, Acetate buffer, 37° C., 24-hr timepoint
  Solubility: 310 µg/mL (≈ 567 µM)
[2]; nominal pH 5.0, BR buffer, 37° C., 1-hr timepoint
  Solubility: 342 µg/mL (≈ 626 µM)
[2]; nominal pH 5.0, BR buffer, 37° C., 4-hr timepoint
  Solubility: 466 µg/mL (≈ 852 µM)
[2]; nominal pH 5.0, BR buffer, 37° C., 24-hr timepoint
  Solubility: 620 µg/mL (≈ 1130 µM)
[2]; nominal pH 6.8, Phosphate buffer, 37° C., 1-hr timepoint
  Solubility: >1000 µg/mL
[2]; nominal pH 6.8, Phosphate buffer, 37° C., 4-hr timepoint
  Solubility: >1000 µg/mL
[2]; nominal pH 6.8, Phosphate buffer, 37° C., 24-hr timepoint
  Solubility: >1000 µg/mL
[2]; pH 1.2-6.8, 37±1° C.
  difference in solubility between Form I and Form III: no significant difference
[5]
  solubility comparison in biorelevant media: very similar
[6]; 50 mM Sodium Acetate Buffer pH 4.5, 1 Hour, listed as Form 3
  Solubility: 290 µg/mL (≈ 530 µM)
[6]; 50 mM Sodium Acetate Buffer pH 4.5, 4 Hours, listed as Form 3
  Solubility: 290 µg/mL (≈ 530 µM)
[6]; 50 mM Sodium Acetate Buffer pH 4.5, 24 Hours, listed as Form 3
  Solubility: 280 µg/mL (≈ 512 µM)
[6]; FaSSIF pH 6.5, 1 Hour, listed as Form 3
  Solubility: 5200 µg/mL (≈ 9510 µM)
[6]; FaSSIF pH 6.5, 4 Hours, listed as Form 3
  Solubility: 5310 µg/mL (≈ 9710 µM)
[6]; FaSSIF pH 6.5, 24 Hours, listed as Form 3
  Solubility: 5320 µg/mL (≈ 9730 µM)
[6]; SGF pH 1.6, 1 Hour, listed as Form 3
  Solubility: 7540 µg/mL (≈ 13800 µM)
[6]; SGF pH 1.6, 4 Hours, listed as Form 3
  Solubility: 7900 µg/mL (≈ 14500 µM)
[6]; SGF pH 1.6, 24 Hours, listed as Form 3
  Solubility: 8620 µg/mL (≈ 15800 µM)
[6]; SGF pH 2.0, 1 Hour
  Solubility: 1490 µg/mL (≈ 2730 µM)
[6]; SGF pH 2.0, 4 Hours, listed as Form 3
  Solubility: 1580 µg/mL (≈ 2890 µM)
[6]; SGF pH 2.0, 24 Hours, listed as Form 3
  Solubility: 1700 µg/mL (≈ 3110 µM)
[6]; SGF pH 4.0, 1 Hour, listed as Form 3
  Solubility: 160 µg/mL (≈ 293 µM)
[6]; SGF pH 4.0, 4 Hours, listed as Form 3
  Solubility: 170 µg/mL (≈ 311 µM)
[6]; SGF pH 4.0, 24 Hours, listed as Form 3
  Solubility: 190 µg/mL (≈ 348 µM)
[6]; all investigated physiologically relevant pH values (1.6 to 6.5)
  solubility comparison of the forms: Forms I and III have very similar solubilities at all investigated physiologically
